Source: patent US20240366598A1, “GLUCOSE-DEPENDENT INSULINOTROPIC POLYPEPTIDE RECEPTOR ANTAGONISTS AND USES THEREOF” (Pfizer Inc., priority 2023, published 2024)
Where a name gives a salt, the structure may show the parent alone.

Molecular target: T1, human Glucose-dependent Insulinotropic Polypeptide Receptor (hGIPR) (Homo sapiens, UniProt P48546)
T1 sequence (P48546 22-466): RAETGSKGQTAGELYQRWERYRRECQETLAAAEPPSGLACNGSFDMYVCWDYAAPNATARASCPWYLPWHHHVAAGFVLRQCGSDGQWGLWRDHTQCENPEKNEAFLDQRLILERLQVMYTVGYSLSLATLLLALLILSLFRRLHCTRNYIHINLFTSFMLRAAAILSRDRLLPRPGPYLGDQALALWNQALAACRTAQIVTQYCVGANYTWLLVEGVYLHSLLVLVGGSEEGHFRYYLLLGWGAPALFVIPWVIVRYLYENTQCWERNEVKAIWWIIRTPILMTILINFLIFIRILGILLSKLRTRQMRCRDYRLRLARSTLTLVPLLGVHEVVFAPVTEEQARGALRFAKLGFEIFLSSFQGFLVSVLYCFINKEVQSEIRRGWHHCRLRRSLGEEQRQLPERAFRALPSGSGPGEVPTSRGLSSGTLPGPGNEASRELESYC
Experiment: Functional in vitro GIPR antagonist potency assay (cAMP HTRF, CHO-K1 cells stably expressing hGIPR, hGIP stimulation at about EC80)
Assay type: cell-based
Settings: geometric mean, hGIP at estimated EC80, examples marked ^2: overall geometric mean of multiple forms (including salts) tested
Outline: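 HTRF quantification of cAMP after stimulation with hGIP at an estimated EC80 for 30 min at 37 °C. Before stimulation, hGIPR-expressing CHO-K1 cells were exposed 2 h to test compound in IBMX-containing buffer, with 0.5% DMSO final. Percent effect is referenced to agonist alone (0%) and to 80 μM of a reference antagonist (100%), and runs required the agonist concentration to fall within the on-the-day EC50–EC90.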

| SMILES | IC50 [nM] |
| --- | --- |
| O=C(O)c1ccc(-c2ccc(NC(=O)[C@H]3CCCN3C(=O)Nc3ccc(C(F)(F)F)cc3)cc2)cc1F [Example 204, 3-fluoro-4′-[(1-{[4-(trifluoromethyl)phenyl]carbamoyl}-D-prolyl)amino][1,1′-biphenyl]-4-carboxylic acid] | 14 |
| Cc1nc(C(=O)O)ccc1-c1ccc(NC(=O)[C@H]2CCCN2C(=O)NCc2ccc(C(C)C)cc2)cc1 [Example 205, 6-methyl-5-(4-{[1-({[4-(propan-2-yl)phenyl]methyl}carbamoyl)-D-prolyl]amino}phenyl)pyridine-2-carboxylic acid] | 14 |
| Cc1nc(C(=O)O)ccc1-c1ccc(NC(=O)[C@H]2CCCN2C(=O)NCc2ccc(C(F)(F)F)cc2)cc1 [Example 206, 6-methyl-5-(4-{[1-{{[4-(trifluoromethyl)phenyl]methyl}carbamoyl)-D-prolyl]amino}phenyl)pyridine-2-carboxylic acid] | 14 |
| CC(C)c1ccc(NC(=O)N2CCC[C@@H]2C(=O)Nc2ccc(-c3ccc(C(=O)O)cc3)cn2)cc1F [Example 207, 4-{6-[(1-{[3-fluoro-4-(propan-2-yl)phenyl]carbamoyl}-D-prolyl)amino]pyridin-3-yl}benzoic acid] | 1.3 |
| CC(C)c1ccc(NC(=O)N2CCC[C@@H]2C(=O)Nc2ccc(-c3ccc(C(=O)O)nc3)cc2)cc1F [Example 208, 5-{4-[(1-{[3-fluoro-4-(propan-2-yl)phenyl]carbamoyl}-D-prolyl)amino]phenyl}pyridine-2-carboxylic acid] | 4.9 |
| Cc1cc(-c2ccc(NC(=O)[C@H]3CCCN3C(=O)Nc3ccc(C(F)(F)F)cc3)cc2)ccc1C(=O)O [Example 209, 3-methyl-4′-[(1-{[4-(trifluoromethyl)phenyl]carbamoyl}-D-prolyl)amino][1,1′-biphenyl]-4-carboxylic acid] | 7.4 |
| O=C(O)c1ccc(-c2ccc(NC(=O)[C@H]3CCCN3C(=O)Nc3ccc(C4CCC4)cc3)nc2)cc1 [Example 210, 4-[6-({1-[(4-cyclobutylphenyl)carbamoyl]-D-prolyl}amino)pyridin-3-yl]benzoic acid] | 9.3 |
| O=C(O)c1ccc(-c2ccc(NC(=O)[C@H]3CCCN3C(=O)Nc3ccc(C4CCC4)cc3)cc2)cn1 [Example 211, 5-[4-({1-[(4-cyclobutylphenyl)carbamoyl]-D-prolyl}amino)phenyl]pyridine-2-carboxylic acid] | 7 |
| Cc1ccc(CNC(=O)N2CCC[C@@H]2C(=O)Nc2ccc(-c3ccc(C(=O)O)nc3C)cc2)cc1F [Example 212, 5-{4-[(1-{[(3-fluoro-4-methylphenyl)methyl]carbamoyl}-D-prolyl)amino]phenyl}-6-methylpyridine-2-carboxylic acid] | 18 |
| Cc1nc(C(=O)O)ccc1-c1ccc(NC(=O)[C@H]2CCCN2C(=O)Nc2cnc(C(C)C)c(F)c2)cc1 [Example 213, 5-{4-[(1-{[5-fluoro-6-(propan-2-yl)pyridin-3-yl]carbamoyl}-D-prolyl)amino]phenyl}-6-methylpyridine-2-carboxylic acid] | 90 |
| CC(C)c1ccc(NC(=O)N2CCC[C@@H]2C(=O)Nc2ccc(-c3ccc(C(=O)O)c(F)c3)cc2)cc1F [Example 214, 3-fluoro-4′-[(1-{[3-fluoro-4-(propan-2-yl)phenyl]carbamoyl}-D-prolyl)amino][1,1′-biphenyl]-4-carboxylic acid] | 6.7 |
| O=C(O)c1ccc(-c2ccc(NC(=O)[C@H]3CCCN3C(=O)Nc3ccc(C(F)(F)F)c(F)c3)cn2)cc1 [Example 215, 4-{5-[(1-{[3-fluoro-4-(trifluoromethyl)phenyl]carbamoyl}-D-prolyl)amino]pyridin-2-yl}benzoic acid] | 15 |
| Cc1cc(NC(=O)N2CCC[C@@H]2C(=O)Nc2ccc(-c3ccc(C(=O)O)nc3C)cc2)ncc1C(C)C [Example 216, 6-methyl-5-{4-[(1-{[4-methyl-5-(propan-2-yl)pyridin-2-yl]carbamoyl}-D-prolyl)amino]phenyl}pyridine-2-carboxylic acid, trifluoroacetate salt] | 65 |
| Cc1cc(NC(=O)[C@H]2CCCN2C(=O)Nc2ccc(C(C)C)c(F)c2)ccc1-c1ccc(C(=O)O)cc1 [Example 219, 4′-[(1-{[3-fluoro-4-(propan-2-yl)phenyl]carbamoyl}-D-prolyl)amino]-2′-methyl[1,1′-biphenyl]-4-carboxylic acid] | 2.9 |
| Cc1cc(NC(=O)N2CCC[C@@H]2C(=O)Nc2ccc(-c3ccc(C(=O)O)cc3)nc2)ncc1C(F)(F)F [Example 222, 4-{5-[(1-{[4-methyl-5-(trifluoromethyl)pyridin-2-yl]carbamoyl}-D-prolyl)amino]pyridin-2-yl}benzoic acid] | 100 |
| O=C(O)c1cccc(-c2ccc(NC(=O)[C@H]3CCCN3C(=O)NCc3ccc(C(F)(F)F)c(F)c3)nc2)c1 [Example 223, 3-(6-{[1-({[3-fluoro-4-(trifluoromethyl)phenyl]methyl}carbamoyl)-D-prolyl]amino}pyridin-3-yl)benzoic acid] | 51 |
| CC(C)c1ccc(CNC(=O)N2CCC[C@@H]2C(=O)Nc2ccc(-c3cccc(C(=O)O)c3)cn2)cc1 [Example 224, 3-(6-{[1-{{[4-(propan-2-yl)phenyl]methyl}carbamoyl)-D-prolyl]amino}pyridin-3-yl) benzoic acid] | 79 |
| O=C(O)c1cccc(-c2ccc(NC(=O)[C@H]3CCCN3C(=O)NCc3ccc(C(F)(F)F)cc3)nc2)c1 [Example 225, 3-(6-{[1-({[4-(trifluoromethyl)phenyl]methyl}carbamoyl)-D-prolyl]amino}pyridin-3-yl)benzoic acid] | 51 |
